In PubChem BioAssay AID248 (DTP/NCI, 2004):
Where “and” joins values, the source holds several entries; their conditions need not be identical. Equal entries are not always repeated. Toxic doses and inconclusive results are not listed.

Test system: L1210 leukemia ip in BDF1 mice, survival T/C
Experiment: NCI In Vivo Anticancer Drug Screen. Data for tumor model L1210 Leukemia (intraperitoneal) in B6D2F1 (BDF1) mice
Conditions: endpoint: mean survival time, higher = longer survival
Summary of the method: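 Ratio derived from survival: compound-dosed mice over vehicle-dosed mice, all bearing a transplantable tumor.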

[1] = dose: 100.0 mg/kg/injection, schedule: Q04DX003 (ip), vehicle: saline
[2] = dose: 200.0 mg/kg/injection, schedule: Q04DX003 (ip), vehicle: saline
[3] = dose: 400.0 mg/kg/injection, schedule: Q04DX003 (ip), vehicle: saline
[4] = dose: 50.0 mg/kg/injection, schedule: Q01DX009 (ip), vehicle: Klucel (hydroxypropylcellulose) (HPC)
[5] = dose: 100.0 mg/kg/injection, schedule: Q01DX009 (ip), vehicle: Klucel (hydroxypropylcellulose) (HPC)
[6] = dose: 200.0 mg/kg/injection, schedule: Q01DX009 (ip), vehicle: Klucel (hydroxypropylcellulose) (HPC)

C[n+]1ccccc1C=O
T/C (dose: 50.0 mg/kg/injection, schedule: Q01DX001 (ip), vehicle: saline): 100 % of control
T/C (dose: 50.0 mg/kg/injection, schedule: Q01DX009 (ip), vehicle: saline): 102 % of control and 103 % of control
T/C (dose: 50.0 mg/kg/injection, schedule: Q04DX003 (ip), vehicle: saline): 98 % of control
T/C (dose: 100.0 mg/kg/injection, schedule: Q01DX001 (ip), vehicle: saline): 100 % of control
T/C (dose: 100.0 mg/kg/injection, schedule: Q01DX009 (ip), vehicle: saline): 104 % of control and 113 % of control
T/C (dose: 100.0 mg/kg/injection, schedule: Q04DX002 (ip), vehicle: saline): 97 % of control and 105 % of control
T/C [1]: 88 % of control
T/C (dose: 200.0 mg/kg/injection, schedule: Q01DX001 (ip), vehicle: saline): 103 % of control
T/C (dose: 200.0 mg/kg/injection, schedule: Q01DX009 (ip), vehicle: saline): 102 % of control and 109 % of control
T/C (dose: 200.0 mg/kg/injection, schedule: Q04DX002 (ip), vehicle: saline): 102 % of control and 105 % of control
T/C [2]: 107 % of control
T/C (dose: 400.0 mg/kg/injection, schedule: Q04DX002 (ip), vehicle: saline): 101 % of control

O=[N+]([O-])c1cccc(OCCCCOc2ccc(S(=O)(=O)F)cc2)c1
T/C (dose: 50.0 mg/kg/injection, schedule: Q01DX001 (ip), vehicle: Klucel (hydroxypropylcellulose) (HPC)): 92 % of control
T/C (dose: 100.0 mg/kg/injection, schedule: Q01DX001 (ip), vehicle: Klucel (hydroxypropylcellulose) (HPC)): 94 % of control
T/C (dose: 200.0 mg/kg/injection, schedule: Q01DX001 (ip), vehicle: Klucel (hydroxypropylcellulose) (HPC)): 90 % of control

C[C@@H](N)[C@@H](O)c1ccccc1
T/C (dose: 30.0 mg/kg/injection, schedule: Q01DX Z (oral), vehicle: saline): 101 % of control
T/C (dose: 60.0 mg/kg/injection, schedule: Q01DX Z (oral), vehicle: saline): 101 % of control

Brc1ccc2c(ccn2Cc2ccccc2)c1
T/C (dose: 100.0 mg/kg/injection, schedule: Q04DX003 (sc), vehicle: olive oil, sesame oil, peanut oil): 109 % of control
T/C (dose: 200.0 mg/kg/injection, schedule: Q04DX003 (sc), vehicle: olive oil, sesame oil, peanut oil): 106 % of control
T/C (dose: 400.0 mg/kg/injection, schedule: Q04DX003 (sc), vehicle: olive oil, sesame oil, peanut oil): 104 % of control

NC(=O)c1ccccc1Cl
T/C (dose: 100.0 mg/kg/injection, schedule: Q01DX001 (ip), vehicle: saline with Tween-80): 104 % of control
T/C (dose: 100.0 mg/kg/injection, schedule: Q01DX009 (ip), vehicle: saline sonified): 105 % of control
T/C (dose: 200.0 mg/kg/injection, schedule: Q01DX001 (ip), vehicle: saline with Tween-80): 102 % of control
T/C (dose: 200.0 mg/kg/injection, schedule: Q01DX009 (ip), vehicle: saline sonified): 89 % of control
T/C (dose: 400.0 mg/kg/injection, schedule: Q01DX001 (ip), vehicle: saline with Tween-80): 101 % of control
T/C (dose: 400.0 mg/kg/injection, schedule: Q01DX009 (ip), vehicle: saline sonified): 100 % of control

C/C(=C\Br)OC1CCCCO1 (stereo unspecified)
T/C (dose: 100.0 mg/kg/injection, schedule: Q01DX009 (ip), vehicle: acetone): 96 % of control
T/C (dose: 200.0 mg/kg/injection, schedule: Q01DX009 (ip), vehicle: acetone): 96 % of control
T/C (dose: 400.0 mg/kg/injection, schedule: Q01DX009 (ip), vehicle: acetone): 92 % of control

Cc1ccc([N+](=O)[O-])c(P(=O)(O)O)c1
T/C (dose: 100.0 mg/kg/injection, schedule: Q04DX003 (ip), vehicle: saline with Tween-80): 100 % of control

CCCCCCCCCN(C)C(C)=O
T/C (dose: 75.0 mg/kg/injection, schedule: Q01DX001 (ip), vehicle: carboxymethylcellulose (CMC)): 94 % of control
T/C (dose: 150.0 mg/kg/injection, schedule: Q01DX001 (ip), vehicle: carboxymethylcellulose (CMC)): 91 % of control
T/C (dose: 300.0 mg/kg/injection, schedule: Q01DX001 (ip), vehicle: carboxymethylcellulose (CMC)): 96 % of control

S=C(Nc1ccccc1)Nc1ccc(Br)cc1
T/C (dose: 100.0 mg/kg/injection, schedule: Q04DX002 (ip), vehicle: Klucel (hydroxypropylcellulose) (HPC)): 101 % of control
T/C (dose: 200.0 mg/kg/injection, schedule: Q04DX002 (ip), vehicle: Klucel (hydroxypropylcellulose) (HPC)): 105 % of control
T/C (dose: 400.0 mg/kg/injection, schedule: Q04DX002 (ip), vehicle: Klucel (hydroxypropylcellulose) (HPC)): 97 % of control

CCCC(O)C[N+](=O)[O-] (stereo unspecified)
T/C [1]: 103 % of control
T/C [2]: 97 % of control
T/C [3]: 101 % of control

COC(=O)c1c[nH]c2ccc(Br)cc12
T/C [1]: 108 % of control
T/C [2]: 92 % of control
T/C [3]: 89 % of control

Nc1cc(C(=O)Nc2ccc(CCNC3=NCCN3)cc2)ccc1C(=O)Nc1ccc(CCNC2=NCCN2)cc1
T/C (dose: 0.26 mg/kg/injection, schedule: Q01DX001 (ip), vehicle: water): 103 % of control
T/C (dose: 0.4 mg/kg/injection, schedule: Q01DX001 (ip), vehicle: water): 101 % of control
T/C (dose: 0.6 mg/kg/injection, schedule: Q01DX001 (ip), vehicle: water): 103 % of control
T/C (dose: 0.93 mg/kg/injection, schedule: Q01DX001 (ip), vehicle: water): 101 % of control
T/C (dose: 0.93 mg/kg/injection, schedule: Q01DX015 (ip), vehicle: water): 101 % of control
T/C (dose: 1.87 mg/kg/injection, schedule: Q01DX015 (ip), vehicle: water): 119 % of control
T/C (dose: 3.75 mg/kg/injection, schedule: Q01DX015 (ip), vehicle: water): 156 % of control
T/C (dose: 4.8 mg/kg/injection, schedule: Q01DX Z (oral), vehicle: water): 109 % of control
T/C (dose: 7.5 mg/kg/injection, schedule: Q01DX015 (ip), vehicle: water): 216 % of control
T/C (dose: 7.5 mg/kg/injection, schedule: Q01DX Z (ip), vehicle: water): 265 % of control
T/C (dose: 7.5 mg/kg/injection, schedule: Q01DX Z (oral), vehicle: water): 113 % of control
T/C (dose: 11.0 mg/kg/injection, schedule: Q01DX Z (oral), vehicle: water): 111 % of control
T/C (dose: 15.0 mg/kg/injection, schedule: Q01DX015 (ip), vehicle: water): 97 % of control
T/C (dose: 16.0 mg/kg/injection, schedule: Q01DX Z (oral), vehicle: water): 104 % of control and 119 % of control
T/C (dose: 23.0 mg/kg/injection, schedule: Q01DX Z (oral), vehicle: water): 104 % of control
T/C (dose: 35.0 mg/kg/injection, schedule: Q01DX Z (oral), vehicle: water): 102 % of control
T/C (dose: 55.0 mg/kg/injection, schedule: Q01DX Z (oral), vehicle: water): 99 % of control and 115 % of control
T/C (dose: 85.0 mg/kg/injection, schedule: Q01DX Z (oral), vehicle: water): 114 % of control
T/C (dose: 125.0 mg/kg/injection, schedule: Q01DX Z (oral), vehicle: water): 118 % of control
T/C (dose: 190.0 mg/kg/injection, schedule: Q01DX Z (oral), vehicle: water): 104 % of control and 113 % of control

CN(C)c1ccc(C(Nc2ccccc2)C(Nc2ccccc2)c2ccc(N(C)C)cc2)cc1 (stereo unspecified)
T/C (dose: 100.0 mg/kg/injection, schedule: Q01DX001 (ip), vehicle: other): 102 % of control
T/C (dose: 200.0 mg/kg/injection, schedule: Q01DX001 (ip), vehicle: other): 87 % of control
T/C (dose: 400.0 mg/kg/injection, schedule: Q01DX001 (ip), vehicle: other): 89 % of control

C/C(N=Nc1ccccc1[N+](=O)[O-])=N\Nc1ccccc1
T/C [4]: 95 % of control
T/C [5]: 97 % of control
T/C [6]: 95 % of control
T/C (dose: 400.0 mg/kg/injection, schedule: Q01DX009 (ip), vehicle: Klucel (hydroxypropylcellulose) (HPC)): 95 % of control

CCCCCC#CC(=O)OC(C)C
T/C (dose: 100.0 mg/kg/injection, schedule: Q04DX002 (ip), vehicle: saline with Tween-80): 102 % of control
T/C (dose: 200.0 mg/kg/injection, schedule: Q04DX002 (ip), vehicle: saline with Tween-80): 102 % of control
T/C (dose: 400.0 mg/kg/injection, schedule: Q04DX002 (ip), vehicle: saline with Tween-80): 102 % of control

O=C1C(=O)c2ccccc2C(O)=C1c1ccc2ccccc2c1
T/C (dose: 50.0 mg/kg/injection, schedule: Q01DX001 (ip), vehicle: carboxymethylcellulose (CMC)): 96 % of control
T/C (dose: 100.0 mg/kg/injection, schedule: Q01DX001 (ip), vehicle: carboxymethylcellulose (CMC)): 96 % of control
T/C (dose: 200.0 mg/kg/injection, schedule: Q01DX001 (ip), vehicle: carboxymethylcellulose (CMC)): 91 % of control
T/C (dose: 400.0 mg/kg/injection, schedule: Q01DX001 (ip), vehicle: carboxymethylcellulose (CMC)): 96 % of control

ClC1=C(Cl)C2(Cl)C3COCC3C1(Cl)C2(Cl)Cl (stereo unspecified)
T/C [4]: 105 % of control
T/C [5]: 90 % of control
T/C (dose: 100.0 mg/kg/injection, schedule: Q04DX003 (ip), vehicle: Klucel (hydroxypropylcellulose) (HPC)): 97 % of control
T/C [6]: 90 % of control
T/C (dose: 200.0 mg/kg/injection, schedule: Q04DX003 (ip), vehicle: Klucel (hydroxypropylcellulose) (HPC)): 95 % of control
